Laboratory results published in ChEMBL document CHEMBL1132137, “Synthesis and antiviral activity of some N-benzenesulphonylbenzimidazoles” (Bioorg Med Chem Lett, 1999).
Values after ≈ are worked out from the molar mass of the structure shown. Values joined by “and” are separate entries in the source; they are usually repeats but may differ in a detail not shown here. Equal entries are not always repeated.

Assays:
Coxsackievirus B5 [1] = experiment: Antiviral activity against the Coxsackie B5 virus (RNA virus) at a concentration of 5 ug/mL was determined as total cell infectious dose 50/mL (TCID50) by viral yield assay; assay type: functional
Coxsackievirus B5 [2] = experiment: Inhibitory concentration required to reduce viral plaque formation of Coxsackie B5 virus by 50%; assay type: functional, organism-based; details: Enterovirus B
Human alphaherpesvirus 1 [3] = experiment: Antiviral activity against the Herpes simplex 1 virus (DNA virus) at a concentration of 5 ug/mL was determined as Plaque forming unit/mL(PFU) by plaque assay; assay type: functional
Mumps virus [4] = experiment: Antiviral activity against the Mumps virus (RNA virus) at a concentration of 5 ug/mL was determined as total cell infectious dose 50/mL (TCID50) by viral yield assay; assay type: functional, Mumps orthorubulavirus
Vero [5] = experiment: (§1) Cytotoxicity on the vero cell culture infected with mL and was determined as reduction in protein content by the Lowry test; assay type: functional, Chlorocebus sabaeus
Vero [6] = experiment: as §1; assay type: functional, Chlorocebus sabaeus; design: unit not given here
Vero [7] = experiment: Cytotoxicity on the vero cell culture infected with Coxsackie B5 virus at a concentration of 10 ug/mL was determined as cell viability by the MTT test; assay type: functional, Chlorocebus sabaeus
Vaccinia virus [8] = experiment: Antiviral activity against the Vaccinia virus (DNA virus) at a concentration of 5 ug/mL was determined as Plaque forming unit/mL(PFU) by plaque assay; assay type: functional, Orthopoxvirus vaccinia
Coxsackievirus B5 [9] = experiment: Antiviral activity against the Coxsackie B5 virus (RNA virus) at a concentration of 4 ug/mL was determined as total cell infectious dose 50/mL (TCID50) by viral yield assay; assay type: functional
Vero [10] = experiment: as §1; assay type: functional, Chlorocebus sabaeus; remark: listed apart in the source
Vero [11] = experiment: Cytotoxicity on the vero cell culture infected with Coxsackie B5 virus at a concentration of 2 ug/mL was determined as cell viability by the MTT test; assay type: functional, Chlorocebus sabaeus
Vero [12] = experiment: Cytotoxicity on the vero cell culture infected with Coxsackie B5 virus at a concentration of 4 ug/mL was determined as cell viability by the MTT test; assay type: functional, Chlorocebus sabaeus
Coxsackievirus B5 [13] = experiment: Antiviral activity against the Coxsackie B5 virus (RNA virus) at a concentration of 3 ug/mL was determined as total cell infectious dose 50/mL (TCID50) by viral yield assay; assay type: functional
Vero [14] = experiment: as §1; assay type: functional, Chlorocebus sabaeus; design: unit not given here; remark: listed apart in the source
Vero [15] = experiment: Cytotoxicity on the vero cell culture infected with Coxsackie B5 virus at a concentration of 3 ug/mL was determined as cell viability by the MTT test; assay type: functional, Chlorocebus sabaeus
Vero [16] = experiment: Cytotoxicity on the vero cell culture infected with Coxsackie B5 virus at a concentration of 5 ug/mL was determined as cell viability by the MTT test; assay type: functional, Chlorocebus sabaeus
Coxsackievirus B5 [17] = experiment: Antiviral activity against the Coxsackie B5 virus (RNA virus) at a concentration of 80 ug/mL was determined as total cell infectious dose 50/mL (TCID50) by viral yield assay; assay type: functional
Vero [18] = experiment: Cytotoxicity on the vero cell culture infected with Coxsackie B5 virus at a concentration of 80 ug/mL was determined as cell viability by the MTT test; assay type: functional, Chlorocebus sabaeus
Coxsackievirus B5 [19] = experiment: Antiviral activity against the Coxsackie B5 virus (RNA virus) at a concentration of 2 ug/mL was determined as total cell infectious dose 50/mL (TCID50) by viral yield assay; assay type: functional
Vero [20] = experiment: Cytotoxicity on the vero cell culture infected with Coxsackie B5 virus at a concentration of 1 ug/mL was determined as cell viability by the MTT test; assay type: functional, Chlorocebus sabaeus
Vero [21] = experiment: as §1; assay type: functional, Chlorocebus sabaeus; remark: listed apart in the source
Human alphaherpesvirus 1 [22] = experiment: Antiviral activity against the Herpes simplex 1 virus (DNA virus) at a concentration of 2 ug/mL was determined as Plaque forming unit/mL(PFU) by plaque assay; assay type: functional
Mumps virus [23] = experiment: Antiviral activity against the Mumps virus (RNA virus) at a concentration of 2 ug/mL was determined as total cell infectious dose 50/mL (TCID50) by viral yield assay; assay type: functional, Mumps orthorubulavirus
Vaccinia virus [24] = experiment: Antiviral activity against the Vaccinia virus (DNA virus) at a concentration of 2 ug/mL was determined as Plaque forming unit/mL(PFU) by plaque assay; assay type: functional, Orthopoxvirus vaccinia

## O=[N+]([O-])c1ccccc1S(=O)(=O)n1c(CCc2ccccn2)nc2ccccc21
Coxsackievirus B5 [1]
  TCID50: 100000 mL⁻¹
Coxsackievirus B5 [2]
  IC50: 5 µg/mL (≈ 12.2 µM)
Human alphaherpesvirus 1 [3]
  Activity: 1800000 pfu/ml
Mumps virus [4]
  TCID50: 10000 mL⁻¹
Vero [5]
  Cytotoxicity: 627.8
Vero [6]
  Cytotoxicity: 759.5
Vero [7]
  Cell viability: 0.82 and 1.23
Vaccinia virus [8]
  Activity: 750 pfu/ml

## O=[N+]([O-])c1ccc(S(=O)(=O)n2c(SCc3ccccn3)nc3ccccc32)cc1
Coxsackievirus B5 [9]
  TCID50: 1000000 mL⁻¹
Vero [5]
  Cytotoxicity: 744.3
Vero [10]
  Cytotoxicity: 734.2
Vero [11]
  Cell viability: 1.44
Vero [12]
  Cell viability: 1.12

## O=[N+]([O-])c1ccc(S(=O)(=O)n2c(SCc3ccccn3)nc3cc(Cl)c(Cl)cc32)cc1
Coxsackievirus B5 [13]
  TCID50: 1000000 mL⁻¹
Vero [14]
  Cytotoxicity: 663.4
Vero [6]
  Cytotoxicity: 540.8
Vero [15]
  Cell viability: 1.23
Vero [16]
  Cell viability: 0.89

## N=C(N)N [GUANIDINE]
Coxsackievirus B5 [17]
  TCID50: 10000 mL⁻¹
Coxsackievirus B5 [13]
  TCID50: 1000000 mL⁻¹
Vero [5]
  Cytotoxicity: 825.7
Vero [14]
  Cytotoxicity: 839.4
Vero [15]
  Cell viability: 1.45
Vero [18]
  Cell viability: 1.41

## O=[N+]([O-])c1ccccc1S(=O)(=O)n1c(SCc2ccccn2)nc2ccccc21
Coxsackievirus B5 [19]
  TCID50: 10000000 mL⁻¹
Vero [5]
  Cytotoxicity: 724.1
Vero [20]
  Cell viability: 1.42
Vero [11]
  Cell viability: 1.02
Vero [21]
  Cytotoxicity: 774.7

## O=[N+]([O-])c1ccccc1S(=O)(=O)n1c(SCc2ccccn2)nc2cc(Cl)c(Cl)cc21
Coxsackievirus B5 [13]
  TCID50: 10000000 mL⁻¹
Vero [14]
  Cytotoxicity: 740.1
Vero [6]
  Cytotoxicity: 495.8
Vero [15]
  Cell viability: 1.12
Vero [16]
  Cell viability: 0.83

## O=[N+]([O-])c1ccc(S(=O)(=O)n2c(Sc3ncccc3[N+](=O)[O-])nc3cc(Cl)c(Cl)cc32)cc1
Coxsackievirus B5 [13]
  TCID50: 1000000 mL⁻¹
Vero [14]
  Cytotoxicity: 595.6
Vero [6]
  Cytotoxicity: 456.1
Vero [15]
  Cell viability: 1.27
Vero [16]
  Cell viability: 0.79

## O=[N+]([O-])c1ccccc1S(=O)(=O)n1c(CCc2ccccn2)nc2cc(Cl)c(Cl)cc21
Coxsackievirus B5 [2]
  IC50: 8 µg/mL (≈ 16.8 µM)
Coxsackievirus B5 [19]
  TCID50: 1000000 mL⁻¹
Human alphaherpesvirus 1 [22]
  Activity: 4700000 pfu/ml
Mumps virus [23]
  TCID50: 100000 mL⁻¹
Vero [5]
  Cytotoxicity: 784.8
Vero [20]
  Cell viability: 1.49
Vero [11]
  Cell viability: 1.36
Vero [21]
  Cytotoxicity: 840.5
Vaccinia virus [24]
  Activity: 120 pfu/ml

## O=[N+]([O-])c1ccc(S(=O)(=O)n2c(Sc3ncccc3[N+](=O)[O-])nc3ccccc32)cc1
Coxsackievirus B5 [13]
  TCID50: 10000000 mL⁻¹
Vero [14]
  Cytotoxicity: 678.6
Vero [6]
  Cytotoxicity: 508.9
Vero [15]
  Cell viability: 1.36
Vero [16]
  Cell viability: 0.8
